Assay: Henry solubility constant Hcp at 310 K (mol/(m3 Pa))
Conditions: reference: Sato and Nakajima (1979a)

Row | Compound | Henry solubility constant Hcp at 310 K
1 | Cc1ccccc1C [1,2-dimethylbenzene] | 0.001
2 | Cc1cccc(C)c1 [1,3-dimethylbenzene] | 0.00064
3 | Cc1ccc(C)cc1 [1,4-dimethylbenzene] | 0.00061
4 | CCCCCC(C)=O [2-heptanone] | 0.037
5 | CCCCC(C)=O [2-hexanone] | 0.043
6 | CCCC(C)=O [2-pentanone] | 0.064
7 | C=CCc1ccccc1 [2-propenylbenzene] | 0.0014
8 | CCC(=O)CC [3-pentanone] | 0.07
9 | CC(=O)CC(C)C [4-methyl-2-pentanone] | 0.031
10 | CC(C)c1ccccc1 [(2-propyl)-benzene] | 0.00056
11 | c1ccccc1 [benzene] | 0.0011
12 | C=Cc1ccccc1 [ethenylbenzene] | 0.0018
13 | CCc1ccccc1 [ethylbenzene] | 0.00066
14 | Cc1ccccc1 [methylbenzene] | 0.00086
15 | CC(C)=O [propanone] | 0.15
16 | CCCc1ccccc1 [propylbenzene] | 0.0005
